# Test results taken from patent US20080280879A1, “SUBSTITUTED HETEROCYCLIC DERIVATIVES AND THEIR PHARMACEUTICAL USE AND COMPOSITIONS” (priority 2007, published 2008).
# Legend:
# Assay type in all cases: cell-based, Staphylococcus aureus
# Staph aureus 2812 = experiment: MIC, microtiter broth dilution (CLSI M7-A7), Assay 1, Table 12 column E, no serum; settings: for MIC: Staphylococcus aureus, 2812, Staph aureus 2812, Assay 1, no serum; for MIC, column E: Staph aureus 2812, Assay 1, no serum
# How it was run: (§1)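 Staphylococcus aureus susceptibility is measured by CLSI M7-A7 broth microdilution in microtiter trays. For serum testing, bacteria are inoculated into Mueller-Hinton Broth containing 50% pooled inactivated human serum. The MIC in μg/ml is the lowest concentration preventing visible growth.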
# Staph aureus 1146 [1] = experiment: MIC, microtiter broth dilution (CLSI M7-A7), Assay 1, Table 12 column B, no serum; settings: for MIC: Staphylococcus aureus, 1146, Staph aureus 1146, Assay 1, no serum; for MIC, column B: Staph aureus 1146, Assay 1, no serum
# How it was run: as §1
# Staph aureus 1095 MRSA = experiment: MIC, microtiter broth dilution (CLSI M7-A7), Assay 1, Table 12 column A, no serum; settings: Assay 1, no serum; for MIC: Staphylococcus aureus, MRSA
# How it was run: as §1
# Staph aureus 2811 = experiment: MIC, microtiter broth dilution (CLSI M7-A7), Assay 1, Table 12 column D, no serum; settings: for MIC: Staphylococcus aureus, 2811, Staph aureus 2811, Assay 1, no serum; for MIC, column D: Staph aureus 2811, Assay 1, no serum
# How it was run: as §1
# Staph aureus 1146 [2] = experiment: MIC in Mueller-Hinton Broth with 50% pooled inactivated human serum, Assay 1, Table 12; settings: for MIC: Staphylococcus aureus, 1146, Staph aureus 1146, Assay 1, 50% human serum, read-out: MIC, column C; for MIC, column C: Staph aureus 1146, Assay 1, 50% human serum
# How it was run: as §1
smiles,measurement,setting,value
"COc1ccc2nccc(C(CC[C@@H]3CCN(C4CC(c5ccccc5)C4)C[C@@H]3C(=O)O)N(C)C)c2c1 (stereo partly drawn) [Example 140, (3R,4R)-4-[3-(dimethylamino)-3-(6-methoxyquinolin-4-yl)propyl]-1-(3-phenylcyclobutyl)piperidine-3-carboxylic acid]",MIC,Staph aureus 2812,16 µg/mL
same,MIC,Staph aureus 1146 [1],16 µg/mL
same,MIC,Staph aureus 1095 MRSA,16 µg/mL
same,MIC,Staph aureus 2811,16 µg/mL
same,MIC,Staph aureus 1146 [2],64 µg/mL
"COc1ccc2nccc([C@@H](O)CC[C@@H]3CCN(C4CC(c5cccc(F)c5C)C4)C[C@@H]3C(=O)O)c2c1 (stereo partly drawn) [Example 57, (3R,4R)-1-[3-(3-fluoro-2-methylphenyl)cyclobutyl]-4-[(3S)-3-hydroxy-3-(6-methoxyquinolin-4-yl)propyl]piperidine-3-carboxylic acid]",MIC,Staph aureus 2812,0.25 µg/mL
same,MIC,Staph aureus 1146 [1],0.25 µg/mL
same,MIC,Staph aureus 1095 MRSA,0.5 µg/mL
same,MIC,Staph aureus 2811,0.25 µg/mL
same,MIC,Staph aureus 1146 [2],8 µg/mL
"COc1ccc2nccc(C(F)CC[C@@H]3CCN(C4CC(c5ccccc5)C4)C[C@@H]3C(=O)O)c2c1 (stereo partly drawn) [Example 133, (3R,4R)-4-(3-fluoro-3-(6-methoxyquinolin-4-yl)propyl)-1-(3-phenylcyclobutyl)piperidine-3-carboxylic acid]",MIC,Staph aureus 2812,≤ 0.0625 µg/mL
same,MIC,Staph aureus 1146 [1],≤ 0.0625 µg/mL
same,"MIC, column A",Staph aureus 1095 MRSA,0.25 µg/mL
same,MIC,Staph aureus 2811,0.125 µg/mL
same,MIC,Staph aureus 1146 [2],2 µg/mL
"COc1ccc2ncc(Cl)c(CCNC3(C(=O)O)CCCN(C4CC(c5c(F)cccc5F)C4)CC3)c2c1 (centres unmarked) [Example 154, 4-{[2-(3-chloro-6-methoxyquinolin-4-yl)ethyl]amino}-1-[3-(2,6-difluorophenyl)cyclobutyl]azepane-4-carboxylic acid]",MIC,Staph aureus 2812,0.0625 µg/mL
same,MIC,Staph aureus 1146 [1],0.0625 µg/mL
same,MIC,Staph aureus 1095 MRSA,0.25 µg/mL
same,MIC,Staph aureus 2811,0.0625 µg/mL
same,MIC,Staph aureus 1146 [2],4 µg/mL
"CNC(=O)[C@H]1CN(C2CC(c3ccccc3)C2)CC[C@H]1CCC(O)c1ccnc2ccc(OC)cc12 (stereo partly drawn) [Example 145, (3R,4R)-4-[3-Hydroxy-3-(6-methoxy-quinolin-4-yl)-propyl]-1-(3-phenyl-cyclobutyl)-piperidine-3-carboxylic acid methylamide]",MIC,Staph aureus 2812,1 µg/mL
same,MIC,Staph aureus 1146 [1],1 µg/mL
same,MIC,Staph aureus 1095 MRSA,0.25 µg/mL
same,MIC,Staph aureus 2811,0.5 µg/mL
same,MIC,Staph aureus 1146 [2],4 µg/mL
"COc1ccc2nccc([C@@H](O)CC[C@@H]3CCN(C4CC(c5cc(F)c(F)cc5F)C4)C[C@@H]3C(=O)O)c2c1 (stereo partly drawn) [Example 191, (3R,4R)-4-[(3S)-3-hydroxy-3-(6-methoxyquinolin-4-yl)propyl]-1-[3-(2,4,5-trifluorophenyl)cyclobutyl] piperidine-3-carboxylic acid]",MIC,Staph aureus 2812,< 0.0625 µg/mL
same,MIC,Staph aureus 1146 [1],< 0.0625 µg/mL
same,MIC,Staph aureus 1095 MRSA,0.125 µg/mL
same,MIC,Staph aureus 2811,< 0.0625 µg/mL
same,MIC,Staph aureus 1146 [2],1 µg/mL
"COc1ccc2nc(C)cc(C(O)CC[C@@H]3CCN(C4CC(c5c(F)cccc5F)C4)C[C@@H]3C(=O)O)c2c1 (stereo partly drawn) [Example 179, (3R,4R)-1-[3-(2,6-difluorophenyl)cyclobutyl]-4-[3-hydroxy-3-(6-methoxy-2-methylquinolin-4-yl)propyl] piperidine-3-carboxylic acid]",MIC,Staph aureus 2812,1 µg/mL
same,MIC,Staph aureus 1146 [1],1 µg/mL
same,MIC,Staph aureus 1095 MRSA,2 µg/mL
same,MIC,Staph aureus 2811,1 µg/mL
same,MIC,Staph aureus 1146 [2],32 µg/mL
"COc1ccc2ncc(Cl)c(C(O)CC[C@@H]3CCN(C4CC(c5c(F)cccc5F)C4)C[C@@H]3C(=O)O)c2c1 (stereo partly drawn) [Example 214, (3R,4R)-4-[3-(3-chloro-6-methoxyquinolin-4-yl)-3-hydroxypropyl]-1-[3-(2,6-difluorophenyl)cyclobutyl]piperidine-3-carboxylic acid]","MIC, column E",Staph aureus 2812,<0.0625 µg/mL
same,"MIC, column B",Staph aureus 1146 [1],<0.0625 µg/mL
same,"MIC, column A",Staph aureus 1095 MRSA,<0.0625 µg/mL
same,"MIC, column D",Staph aureus 2811,<0.0625 µg/mL
same,"MIC, column C",Staph aureus 1146 [2],2.00 µg/mL
"COc1ccc2ncc(F)c(C(O)CC[C@@H]3CCN(C4CC(c5cc(F)ccc5F)C4)C[C@@H]3C(=O)O)c2n1 (stereo partly drawn) [Example 205, (3R,4R)-1-[3-(2,5-difluorophenyl)cyclobutyl]-4-[3-(3-fluoro-6-methoxy-1,5-naphthyridin-4-yl)-3-hydroxypropyl]piperidine-3-carboxylic acid]",MIC,Staph aureus 2812,< 0.0625 µg/mL
same,MIC,Staph aureus 1146 [1],< 0.0625 µg/mL
same,MIC,Staph aureus 1095 MRSA,< 0.0625 µg/mL
same,MIC,Staph aureus 2811,< 0.0625 µg/mL
same,MIC,Staph aureus 1146 [2],2 µg/mL
"COc1ccc2nccc([C@@H](O)CC[C@@H]3CCN(C4CC(c5cccc(OC)c5F)C4)C[C@@H]3C(=O)O)c2c1 (stereo partly drawn) [Example 208, (3R,4R)-1-[3-(2-fluoro-3-methoxyphenyl)cyclobutyl]-4-[(3S)-3-hydroxy-3-(6-methoxyquinolin-4-yl)propyl]piperidine-3-carboxylic acid]",MIC,Staph aureus 2812,64 µg/mL
same,MIC,Staph aureus 1146 [1],32 µg/mL
same,MIC,Staph aureus 1095 MRSA,64 µg/mL
same,MIC,Staph aureus 2811,32 µg/mL
same,MIC,Staph aureus 1146 [2],> 64 µg/mL
"COc1ccc2nccc(C(O)CC[C@@H]3CCN(C4CC(Oc5ccccc5)C4)C[C@@H]3C(=O)O)c2c1 (stereo partly drawn) [Example 8, (3R,4R)-4-[3-hydroxy-3-(6-methoxyquinolin-4-yl)propyl]-1-(3-phenoxycyclobutyl)piperidine-3-carboxylic acid]",MIC,Staph aureus 2812,0.25 µg/mL
same,MIC,Staph aureus 1146 [1],0.25 µg/mL
same,MIC,Staph aureus 1095 MRSA,0.25 µg/mL
same,MIC,Staph aureus 2811,0.125 µg/mL
same,MIC,Staph aureus 1146 [2],8 µg/mL
"COc1ccc2ncc(F)c(C(O)CC[C@@H]3CCN(C4CC(c5c(F)cccc5F)C4)C[C@@H]3C(=O)O)c2c1 (single isomer, unassigned) [Example 18]",MIC,Staph aureus 2812,≤ 0.0625 µg/mL
same,MIC,Staph aureus 1146 [1],≤ 0.0625 µg/mL
same,MIC,Staph aureus 1095 MRSA,≤ 0.0625 µg/mL
same,MIC,Staph aureus 2811,≤ 0.0625 µg/mL
same,MIC,Staph aureus 1146 [2],0.25 µg/mL
"COc1ccc(F)c(C2CC(N3CC[C@@H](CC[C@H](O)c4ccnc5ccc(OC)cc45)[C@@H](C(=O)O)C3)C2)c1 (stereo partly drawn) [Example 172, (3R,4R)-1-[3-(2-fluoro-5-methoxyphenyl)cyclobutyl]-4-[(3S)-3-hydroxy-3-(6-methoxyquinolin-4-yl)propyl]piperidine-3-carboxylic acid]",MIC,Staph aureus 2812,2 µg/mL
same,MIC,Staph aureus 1146 [1],2 µg/mL
same,MIC,Staph aureus 1095 MRSA,4 µg/mL
same,MIC,Staph aureus 2811,1 µg/mL
same,MIC,Staph aureus 1146 [2],32 µg/mL
"COc1ccc2nccc(C(O)CC[C@@H]3CCN(C4CC5(CCCC5)C4)C[C@@H]3C(=O)O)c2c1 (stereo partly drawn) [Example 55, (3R,4R)-4-[3-hydroxy-3-(6-methoxyquinolin-4-yl)propyl]-1-spiro[3.4]oct-2-ylpiperidine-3-carboxylic acid]",MIC,Staph aureus 2812,2 µg/mL
same,MIC,Staph aureus 1146 [1],1 µg/mL
same,MIC,Staph aureus 1095 MRSA,4 µg/mL
same,MIC,Staph aureus 2811,2 µg/mL
same,MIC,Staph aureus 1146 [2],32 µg/mL
"COc1ccc2ncc(F)c(C(O)CC[C@@H]3CCN(C4CC(c5ccccc5)C4)C[C@@H]3C(=O)O)c2c1 (single isomer, unassigned) [Example 16]","MIC, column E",Staph aureus 2812,0.125 µg/mL
same,"MIC, column B",Staph aureus 1146 [1],<=.0884 μg/ml
same,"MIC, column A",Staph aureus 1095 MRSA,0.125 µg/mL
same,"MIC, column D",Staph aureus 2811,0.125 µg/mL
same,"MIC, column C",Staph aureus 1146 [2],1 µg/mL
"COc1ccc2nccc(CCCC3(C(=O)O)CCN(CC4CC4c4ccccc4)CC3)c2c1 (centres unmarked) [Example 107, 4-[3-(6-methoxyquinolin-4-yl)propyl]-1-{[(1,2)-2-phenylcyclopropyl]methyl}piperidine-4-carboxylic acid]","MIC, column E",Staph aureus 2812,16 µg/mL
same,"MIC, column B",Staph aureus 1146 [1],64 µg/mL
same,"MIC, column A",Staph aureus 1095 MRSA,64 µg/mL
same,"MIC, column D",Staph aureus 2811,64 µg/mL
same,"MIC, column C",Staph aureus 1146 [2],>64 µg/mL
"COc1ccc2nccc([C@@H](O)CNC3CCN([C@H]4C[C@H](c5ccccc5)C4)CC3C(=O)O)c2c1 (stereo partly drawn) [Example 122, 4-{[(2R)-2-hydroxy-2-(6-methoxyquinolin-4-yl)ethyl]amino}-1-(trans-3-phenylcyclobutyl)piperidine-3-carboxylic acid]",MIC,Staph aureus 2812,2 µg/mL
same,MIC,Staph aureus 1146 [1],4 µg/mL
same,MIC,Staph aureus 1095 MRSA,4 µg/mL
same,MIC,Staph aureus 2811,1 µg/mL
same,MIC,Staph aureus 1146 [2],16 µg/mL
COc1ccc2nccc([C@@H](O)CC[C@@H]3CCN(C4CC5c6ccccc6SC54)C[C@@H]3C(=O)O)c2c1 (some centres unmarked) [Example 225],MIC,Staph aureus 2812,0.5 µg/mL
same,MIC,Staph aureus 1146 [1],0.25 µg/mL
same,MIC,Staph aureus 1095 MRSA,1 µg/mL
same,MIC,Staph aureus 2811,0.25 µg/mL
same,MIC,Staph aureus 1146 [2],2 µg/mL
"COc1ccc2nccc(C(O)CC[C@@H]3CCN(C4CCC(c5cc(F)ccc5F)C4)C[C@@H]3C(=O)O)c2c1 (stereo partly drawn) [Example 183, (3R,4R)-1-[3-(2,5-difluorophenyl)cyclopentyl]-4-[3-hydroxy-3-(6-methoxyquinolin-4-yl)propyl]piperidine-3-carboxylic acid]",MIC,Staph aureus 2812,0.5 µg/mL
same,MIC,Staph aureus 1146 [1],0.25 µg/mL
same,MIC,Staph aureus 1095 MRSA,2 µg/mL
same,MIC,Staph aureus 2811,0.25 µg/mL
same,MIC,Staph aureus 1146 [2],8 µg/mL
"COc1ccc2nccc([C@@H](O)CC[C@@H]3CCN(C4CC(c5cccc(F)c5)C4)C[C@@H]3C(=O)O)c2c1 (stereo partly drawn) [Example 92, (3R,4R)-1-[3-(3-fluorophenyl)cyclobutyl]-4-[(3S)-3-hydroxy-3-(6-methoxyquinolin-4-yl)propyl]piperidine-3-carboxylic acid]",MIC,Staph aureus 2812,≤ 0.0625 µg/mL
same,MIC,Staph aureus 1146 [1],≤ 0.0625 µg/mL
same,MIC,Staph aureus 1095 MRSA,0.125 µg/mL
same,MIC,Staph aureus 2811,≤ 0.0625 µg/mL
same,MIC,Staph aureus 1146 [2],0.5 µg/mL
"COc1ccc2nccc(C(O)CC[C@@H]3CCN(C4CC(c5nnc(C)o5)C4)C[C@@H]3C(=O)O)c2c1 (stereo partly drawn) [Example 110, (3R,4R)-4-[3-hydroxy-3-(6-methoxyquinolin-4-yl)propyl]-1-[3-(5-methyl-1,3,4-oxadiazol-2-yl)cyclobutyl]piperidine-3-carboxylic acid]",MIC,Staph aureus 2812,> 64 µg/mL
same,MIC,Staph aureus 1146 [1],32 µg/mL
same,MIC,Staph aureus 1095 MRSA,> 64 µg/mL
same,MIC,Staph aureus 2811,> 64 µg/mL
same,MIC,Staph aureus 1146 [2],> 64 µg/mL
"COc1ccc2ncc(F)c(CCCC3(C(=O)O)CCN(C4CC(c5c(F)cccc5F)C4)C3)c2c1 (centres unmarked) [Example 180, 1-[3-(2,6-difluorophenyl)cyclobutyl]-3-[3-(3-fluoro-6-methoxyquinolin-4-yl)propyl]pyrrolidine-3-carboxylic acid]","MIC, column E",Staph aureus 2812,<0.0625 µg/mL
same,"MIC, column B",Staph aureus 1146 [1],<0.0625 µg/mL
same,"MIC, column A",Staph aureus 1095 MRSA,<0.0625 µg/mL
same,"MIC, column D",Staph aureus 2811,<0.0625 µg/mL
same,"MIC, column C",Staph aureus 1146 [2],16.0 µg/mL
